Source: patent US7635423B2, “Redox potential mediated, heterogeneous, carbon nanotube biosensing” (E. I. du Pont de Nemours and Company, priority 2004, dated 2009)
Where “and” joins values, the source holds several entries; their conditions need not be identical. Identical values can stand only once. Counter-ions that a name gives are not always drawn. Like-named read-outs stand apart in the source and are kept apart here.

Tests used:
[1] = tested on: Trametes versicolor laccase; test: Laccase inhibitor kinetics: rate of ABTS^−2 oxidation at varied inhibitor and substrate concentrations; type: biochemical
Description: High potential quinones/quinols were screened to identify those with characteristics that would be suitable for use as an inhibitor of laccase, to be used in an activity switch.
Compounds were evaluated by varying the concentrations of inhibitor and substrate (ABTS^−2) and measuring under each condition the rate of ABTS^−2 oxidation. […] Tetrachloro-o-quinol and tetrafluoro-o-quinol, shown in Diagram I, had Kds, of 7-9 μM and 2.5 μM, respectively, as determined from the data in FIG. 20.
[…]

[2] = tested on: laccase (Type I copper center); test: Laccase 600 nm absorbance peak on inhibitor binding; parameters: species or system Trametes versicolor
Text: This conclusion was strengthened by the observation that the binding of tetrachloro-o-quinol to laccase caused a decrease in the amplitude of the laccase 600 nm absorbance peak, dominated by a charge-transfer band involving the Type I copper center and its cysteinyl ligand.

[3] = tested on: surface-attached oligo 29 (complementary) vs oligo 28 (non-complementary); test: Detection of DNA hybridization by CNT device (current vs time at Vg=−0.4 V); details: 30 μM ABTS^−2, 50 mM glycine pH 3, adduct 50 nM (in DNA)
Description: Detection of DNA hybridization in a CNT device was assayed as diagramed in FIG. 17. […] In the diagram, two electrodes are indicated, one source electrode (10) and one drain electrode (20), where the electrodes are connected by an electrically conducting path comprising at least one semiconducting carbon nanotube (30). A third electrode (40) generates an electric field to gate the conductance of the CNT. Nucleic acid molecules, functioning as capture moieties (220) are attached to a surface (60) through a silyl butyraldehyde attachment group (230). An oligonucleotide (260) that hybridizes to the capture moiety nucleic acid is attached to the enzyme laccase (270). Laccase oxidizes ABTS^−2 (2,2′ azino-di-(3-ethylbenzthiazoline-sulfonate) at the expense of O2, transferring 4 electrons from 4ABTS^−2 to O2, producing 4ABTS^−1 and H2O. Thus the redox potential of the redox effector (ABTS^−2/ABTS^−1) in solution becomes more positive. This change in effector redox potential oxidizes the CNTs, increasing their p-type conductance. […]
Electron transport through the CNT was first recorded in the 50 mM glycine pH=3 buffer and immediately after flowing 30 μM ABTS^−2 in the same buffer into the flow cell. […]

[4] = tested on: Trametes versicolor laccase; test: Laccase assay: ABTS^−2 oxidation followed at 436 nm, with and without NaF; type: biochemical; details: 1 mM NaF; 5 mM ABTS^−2; 50 mM Glycine pH 3.0
Description: A stock solution of Trametes versicolor laccase (4.8 mg/ml) was diluted 200,000-fold into 50 mM Glycine, pH 3.0. At time zero, ABTS^−2 (2,2′-azino-bis(3-ethylbenzthiazoline-6-sulfonate) diammonium salt was added at a concentration of 5 mM and the oxidation of ABTS^−2 was followed by monitoring the absorbance change at 436 nm. Shown in FIG. 12 is the result of the laccase assay in the presence and absence of 1 mM NaF. The latter inhibits the laccase activity by 95%.

[5] = tested on: surface-bound oligonucleotide 51; test: Fluorescence signals following hybridization to surface bound oligo; type: binding; details: camera exposure 30 s
Description: To increase the specificity of hybridization, the chips were incubated with Sigma #6429 1× Blocking buffer for 1 h. Excess blocking solution was removed by rinsing with 50 mM Na Acetate pH 5.0 plus 100 mM Na2SO4. Surface-bound oligonucleotide 51 was hybridized separately to: • 1) Oligonucleotide 52 (SEQ ID NO:4), acting as a target sequence, hybridized to oligonucleotide 54 (SEQ ID NO:5). Oligonucleotide 54 has 18 nucleotides complementary to the 3′ end of the target oligonucleotide 52 and a fluorescent tag, Alexa Fluor 546, at its 5′ end. Oligonucleotide 52 has at its 5′ end 18 nucleotides complementary to oligonucleotide 51. • 2) Oligonucleotide 52 (SEQ ID NO:4), acting as a target sequence, hybridized to oligonucleotide 50 (SEQ ID NO:5). Oligonucleotide 50 has the same nucleotide sequence as oligonucleotide 54 and was attached to laccase enzyme (lac/oligo 50) as described below in Example 13, This oligonucleotide also has a Cy3 tag at its 3′ end. All oligonucleotides were purchased from Integrated DNA Technologies, Inc. (Coralville, Iowa). Oligos 52 and 54 in (1), and oligos 52 and 50 in (2) were prehybridized in 50 mM Na Acetate pH 5.0 plus 100 mM Na2SO4 for 10 min at 50° C., then allowed to cool to room temperature before adding to the chip with oligo 51.
Hybridizations of the surface bound probe, oligo 51, with the samples listed above were carried out in 50 mM Na Acetate pH 5.0 plus 100 mM Na2SO4. Unbound oligonucleotides were removed by rinsing with Washing Buffer A (Arraylt, Telechem International Inc., Sunnyvale, Calif.). Where a laccase/DNA adduct was used for hybridization, 50 mM Na Acetate pH 5.0 plus 100 mM Na2SO4 was used for the wash. After washing, the chip was covered with a cover slip and observed using a fluorescence microscope. The extent of hybridization was evaluated by measuring fluorescence emission from fluorescent-tagged oligonucleotides attached or not to laccase.
Results of fluorescent signals following hybridizations in 1) and 2) above, using different concentrations of oligos as listed, are given in Table 1. […]

[6] = plots of reciprocal rate vs inhibitor concentration, FIG. 20, read-out: Kd (dissociation constant of the inhibitor, -Ki intersection)

CCn1c(=NN=c2sc3cc(S(=O)(=O)O)ccc3n2CC)sc2cc(S(=O)(=O)O)ccc21 [ABTS^−2, 2,2′-azino-bis(3-ethylbenz-thiazoline-6-sulfonate) diammonium salt, reference compound]
Kd ([1]; substrate of laccase, read-out: dissociation constant, Kd of the laccase substrate): 120 to 240 µM

Oc1c(O)c(Cl)c(Cl)c(Cl)c1Cl [Tetrachloro-o-quinol]
activity as an inhibitor of laccase [1]: effective inhibitor
Kd [1, 6]: 7 to 9 µM
amplitude of the laccase 600 nm absorbance peak on binding [2]: decrease

oligo28/laccase adduct: oligo 28 (SEQ ID NO:1) attached via 5′ hydrazide to periodate-treated Trametes versicolor laccase (CGCTGTGATGGTGGCCCC; Laccase enzyme attached through a 5' hydrazide, further chemistry not given here)
increase in current, complementary vs non-complementary surface oligonucleotide [3]: 3.5 fold

Oc1c(O)c(F)c(F)c(F)c1F [tetrafluoro-o-quinol]
Kd [1, 6]: 2.5 µM

Oc1c(Cl)c(Cl)c(O)c(Cl)c1Cl [tetrachloro-p-quinol]
activity as an inhibitor of laccase [1]: inactive

[F-].[Na+] [NaF]
inhibition of laccase activity [4]: 95%

B1: Oligo52 + Oligo54: target oligonucleotide 52 (SEQ ID NO:4) prehybridized to oligonucleotide 54 (SEQ ID NO:5) with 5′ Alexa Fluor 546 tag (nucleic acid)
chain 1: GGGGCCACCATCACAGCGTTTTTTTTTTGGGGCCACCATCACAGCG
chain 2: CGCTGTGATGGTGGCCCC
modifications: Second strand carries a 5' Alexa Fluor 546 label, further chemistry not given here; the letters are possibly those of the target site
Relative signal amplitude ([5]; 1 nM): 39 and 50
Relative signal amplitude ([5]; 10 nM): 940 and 990
Relative signal amplitude ([5]; 100 nM): 1140 and 1690
